Measured values as given in article PMC5529566, “The cryo-EM structure of gastric H^+,K^+-ATPase with bound BYK99, a high-affinity member of K^+-competitive, imidazo[1,2-a]pyridine inhibitors” (Scientific Reports, 2017).
Several values for one entry are separate records, joined by “and”; a condition that tells them apart may be missing. Identical values can stand only once.

What was measured:
[1] = pKa and protonation of imidazo[1,2-a]pyridine; format: physicochemical; conditions: at pH 7.0 of the ATPase assays
[2] = molecular target: H^+,K^+-ATPase A335C/C813A; set-up: method as in PMID 12379118; conditions: cited from earlier work
H^+,K^+-ATPase L809F [3] = conditions: cited from earlier work
H^+,K^+-ATPase Y799A [4] = tested on: H^+,K^+-ATPase Y799A; set-up: method as in PMID 14699149; conditions: Y799A vs wild-type; cited from earlier work
H^+,K^+-ATPase Y799F [5] = tested on: H^+,K^+-ATPase Y799F; set-up: method as in PMID 14699149; conditions: cited from earlier work
H^+,K^+-ATPase WT = molecular target: T1, H^+,K^+-ATPase WT (Sus scrofa, UniProt P19156); experiment: K^+-competitive inhibition of H^+,K^+-ATPase activity, 96-well ATPase assay, wild-type; format: biochemical, pig; conditions: WT
T1 construct: made in house; host or cells: HEK293S GnT1- cells (BacMam baculovirus transduction); permeabilised membrane fractions

H^+,K^+-ATPase D137E = molecular target: T2, H^+,K^+-ATPase D137E (Sus scrofa, UniProt P19156, D138E); experiment: ATPase assay, D137E mutant; format: biochemical, pig
T2 construct: made in house; host or cells: HEK293S GnT1- cells (BacMam baculovirus transduction), membrane fraction

H^+,K^+-ATPase D136A = H^+,K^+-ATPase D136A (Sus scrofa, UniProt P19156, D137A); experiment: ATPase assay, D136A mutant
H^+,K^+-ATPase D136L = H^+,K^+-ATPase D136L (Sus scrofa, UniProt P19156, D137L); experiment: ATPase assay, D136L mutant
H^+,K^+-ATPase D136I = H^+,K^+-ATPase D136I (Sus scrofa, UniProt P19156, D137I); experiment: ATPase assay, D136I mutant
H^+,K^+-ATPase D136F = H^+,K^+-ATPase D136F (Sus scrofa, UniProt P19156, D137F); experiment: ATPase assay, D136F mutant
H^+,K^+-ATPase D137A = H^+,K^+-ATPase D137A (Sus scrofa, UniProt P19156, D138A); experiment: ATPase assay, D137A mutant
H^+,K^+-ATPase D137L = H^+,K^+-ATPase D137L (Sus scrofa, UniProt P19156, D138L); experiment: ATPase assay, D137L mutant
H^+,K^+-ATPase D137I = H^+,K^+-ATPase D137I (Sus scrofa, UniProt P19156, D138I); experiment: ATPase assay, D137I mutant
H^+,K^+-ATPase D137F = H^+,K^+-ATPase D137F (Sus scrofa, UniProt P19156, D138F); experiment: ATPase assay, D137F mutant
H^+,K^+-ATPase N138A = H^+,K^+-ATPase N138A (Sus scrofa, UniProt P19156, N139A); experiment: ATPase assay, N138A mutant
H^+,K^+-ATPase N138L = H^+,K^+-ATPase N138L (Sus scrofa, UniProt P19156, N139L); experiment: ATPase assay, N138L mutant
H^+,K^+-ATPase N138I = H^+,K^+-ATPase N138I (Sus scrofa, UniProt P19156, N139I); experiment: ATPase assay, N138I mutant
H^+,K^+-ATPase N138F = H^+,K^+-ATPase N138F (Sus scrofa, UniProt P19156, N139F); experiment: ATPase assay, N138F mutant
H^+,K^+-ATPase L139A = H^+,K^+-ATPase L139A (Sus scrofa, UniProt P19156, L140A); experiment: ATPase assay, L139A mutant
H^+,K^+-ATPase L139I = H^+,K^+-ATPase L139I (Sus scrofa, UniProt P19156, L140I); experiment: ATPase assay, L139I mutant
H^+,K^+-ATPase L139F = H^+,K^+-ATPase L139F (Sus scrofa, UniProt P19156, L140F); experiment: ATPase assay, L139F mutant
H^+,K^+-ATPase Y140A = H^+,K^+-ATPase Y140A (Sus scrofa, UniProt P19156, Y141A); experiment: ATPase assay, Y140A mutant
H^+,K^+-ATPase Y140L = H^+,K^+-ATPase Y140L (Sus scrofa, UniProt P19156, Y141L); experiment: ATPase assay, Y140L mutant
H^+,K^+-ATPase Y140I = H^+,K^+-ATPase Y140I (Sus scrofa, UniProt P19156, Y141I); experiment: ATPase assay, Y140I mutant
H^+,K^+-ATPase Y140F = H^+,K^+-ATPase Y140F (Sus scrofa, UniProt P19156, Y141F); experiment: ATPase assay, Y140F mutant
H^+,K^+-ATPase L141I = H^+,K^+-ATPase L141I (Sus scrofa, UniProt P19156, L142I); experiment: ATPase assay, L141I mutant
H^+,K^+-ATPase D137N = H^+,K^+-ATPase D137N (Sus scrofa, UniProt P19156, D138N); experiment: ATPase assay, D137N mutant
H^+,K^+-ATPase N138D = H^+,K^+-ATPase N138D (Sus scrofa, UniProt P19156, N139D); experiment: ATPase assay, N138D mutant
H^+,K^+-ATPase A335G = H^+,K^+-ATPase A335G (Sus scrofa, UniProt P19156, A336G); experiment: ATPase assay, A335G mutant
H^+,K^+-ATPase Y799A [6] = molecular target: H^+,K^+-ATPase Y799A (Sus scrofa, UniProt P19156, Y800A); experiment: ATPase assay, Y799A mutant
H^+,K^+-ATPase Y799F [7] = molecular target: H^+,K^+-ATPase Y799F (Sus scrofa, UniProt P19156, Y800F); experiment: ATPase assay, Y799F mutant
H^+,K^+-ATPase L809F [8] = molecular target: H^+,K^+-ATPase L809F (Sus scrofa, UniProt P19156, L810F); experiment: ATPase assay, L809F mutant
[9] = molecular target: H^+,K^+-ATPase D137N/N138D (Sus scrofa, UniProt P19156, D138N/N139D); experiment: ATPase assay, D137N/N138D mutant; conditions: D137N/N138D
[10] = molecular target: H^+,K^+-ATPase A335C/C813A (Sus scrofa, UniProt P19156, A336C/C814A); experiment: ATPase assay, A335C/C813A mutant
H^+,K^+-ATPase = H^+,K^+-ATPase (Sus scrofa, UniProt P19156); experiment: Dose-dependent inhibition of H^+,K^+-ATPase activity in the presence of 10 mM KCl
Protocol: Reactions were initiated by incubating at 37 °C using a thermal cycler, and maintained for 1 to 5 h (depending on the activity). Reactions were terminated by withdrawing 40 μL from the 80 μL reactant, and mixing with 80 μL of stop solution comprising 6% ascorbic acid and 2% ammonium molybdate in 1 N HCl, followed by the addition of 120 μL of 2% sodium arsenate, 2% sodium citrate, and 2% acetic acid. The amount of released inorganic phosphate was determined colorimetrically[39] from absorbance at 850 nm by the microplate reader (TECAN).

H^+,K^+-ATPase D136F, sequence (P19156 whole entry D137F): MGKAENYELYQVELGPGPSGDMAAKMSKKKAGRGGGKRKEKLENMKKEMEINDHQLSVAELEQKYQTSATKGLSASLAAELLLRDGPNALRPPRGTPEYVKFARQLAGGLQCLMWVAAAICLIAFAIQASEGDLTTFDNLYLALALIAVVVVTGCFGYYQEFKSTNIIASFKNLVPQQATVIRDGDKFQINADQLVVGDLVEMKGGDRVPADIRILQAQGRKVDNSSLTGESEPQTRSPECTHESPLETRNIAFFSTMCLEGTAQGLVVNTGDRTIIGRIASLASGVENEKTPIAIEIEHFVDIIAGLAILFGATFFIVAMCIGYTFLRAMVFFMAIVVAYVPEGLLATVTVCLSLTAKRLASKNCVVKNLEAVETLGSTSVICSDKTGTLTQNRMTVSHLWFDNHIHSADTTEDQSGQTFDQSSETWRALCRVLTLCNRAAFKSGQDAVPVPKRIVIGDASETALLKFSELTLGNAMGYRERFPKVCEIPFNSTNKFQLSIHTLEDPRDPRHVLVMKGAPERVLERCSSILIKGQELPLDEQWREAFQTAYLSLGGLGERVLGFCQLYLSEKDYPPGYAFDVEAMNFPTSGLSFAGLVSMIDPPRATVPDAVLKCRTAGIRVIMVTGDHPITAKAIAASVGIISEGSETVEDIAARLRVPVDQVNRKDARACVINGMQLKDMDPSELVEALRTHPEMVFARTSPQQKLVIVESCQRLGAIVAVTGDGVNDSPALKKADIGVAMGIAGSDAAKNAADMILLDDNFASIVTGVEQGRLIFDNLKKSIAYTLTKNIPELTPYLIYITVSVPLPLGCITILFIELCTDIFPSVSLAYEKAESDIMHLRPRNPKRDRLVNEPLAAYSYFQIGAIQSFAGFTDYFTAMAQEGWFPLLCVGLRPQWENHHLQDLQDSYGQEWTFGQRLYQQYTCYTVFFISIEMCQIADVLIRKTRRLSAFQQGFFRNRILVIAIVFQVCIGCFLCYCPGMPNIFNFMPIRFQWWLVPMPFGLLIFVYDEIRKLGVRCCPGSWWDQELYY
H^+,K^+-ATPase D136F, sequence (P18434 whole entry partner): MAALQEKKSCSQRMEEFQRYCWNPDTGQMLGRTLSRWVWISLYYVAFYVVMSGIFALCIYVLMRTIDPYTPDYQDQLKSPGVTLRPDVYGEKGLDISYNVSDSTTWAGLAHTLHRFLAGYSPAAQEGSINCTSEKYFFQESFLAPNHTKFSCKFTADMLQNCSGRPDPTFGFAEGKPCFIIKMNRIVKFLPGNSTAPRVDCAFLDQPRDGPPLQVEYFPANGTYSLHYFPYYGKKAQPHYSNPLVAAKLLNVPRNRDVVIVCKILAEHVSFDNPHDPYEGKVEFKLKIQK
H^+,K^+-ATPase D137A, sequence (P19156 whole entry D138A): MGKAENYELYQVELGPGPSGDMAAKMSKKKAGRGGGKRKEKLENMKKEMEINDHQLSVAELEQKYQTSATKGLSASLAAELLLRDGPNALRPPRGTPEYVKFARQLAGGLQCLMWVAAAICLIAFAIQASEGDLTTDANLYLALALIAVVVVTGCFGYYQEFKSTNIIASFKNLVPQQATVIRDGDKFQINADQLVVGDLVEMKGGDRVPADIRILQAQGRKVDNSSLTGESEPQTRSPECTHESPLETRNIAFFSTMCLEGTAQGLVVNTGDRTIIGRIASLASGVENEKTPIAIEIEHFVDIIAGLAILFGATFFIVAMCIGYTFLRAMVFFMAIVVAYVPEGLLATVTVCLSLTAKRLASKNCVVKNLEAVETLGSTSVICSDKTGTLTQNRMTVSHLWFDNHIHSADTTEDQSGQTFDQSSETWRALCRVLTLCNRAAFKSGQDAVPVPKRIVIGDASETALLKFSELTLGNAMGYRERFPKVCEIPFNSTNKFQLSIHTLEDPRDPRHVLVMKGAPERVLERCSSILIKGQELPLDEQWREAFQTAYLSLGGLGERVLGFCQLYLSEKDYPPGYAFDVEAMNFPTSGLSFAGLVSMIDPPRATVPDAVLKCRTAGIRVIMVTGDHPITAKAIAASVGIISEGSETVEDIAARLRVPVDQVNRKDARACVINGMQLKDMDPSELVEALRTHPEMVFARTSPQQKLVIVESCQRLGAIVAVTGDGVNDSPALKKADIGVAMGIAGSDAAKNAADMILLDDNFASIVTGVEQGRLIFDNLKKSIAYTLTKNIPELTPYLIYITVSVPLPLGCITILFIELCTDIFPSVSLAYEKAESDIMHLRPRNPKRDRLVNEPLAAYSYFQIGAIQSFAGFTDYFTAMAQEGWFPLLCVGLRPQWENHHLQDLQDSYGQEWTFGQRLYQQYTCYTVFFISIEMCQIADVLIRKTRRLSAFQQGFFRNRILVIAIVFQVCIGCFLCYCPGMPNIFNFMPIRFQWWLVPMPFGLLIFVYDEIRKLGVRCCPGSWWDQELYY
H^+,K^+-ATPase D137A, sequence (P18434 whole entry partner): as the sequence (P18434 whole entry partner) above
H^+,K^+-ATPase D137F, sequence (P19156 whole entry D138F): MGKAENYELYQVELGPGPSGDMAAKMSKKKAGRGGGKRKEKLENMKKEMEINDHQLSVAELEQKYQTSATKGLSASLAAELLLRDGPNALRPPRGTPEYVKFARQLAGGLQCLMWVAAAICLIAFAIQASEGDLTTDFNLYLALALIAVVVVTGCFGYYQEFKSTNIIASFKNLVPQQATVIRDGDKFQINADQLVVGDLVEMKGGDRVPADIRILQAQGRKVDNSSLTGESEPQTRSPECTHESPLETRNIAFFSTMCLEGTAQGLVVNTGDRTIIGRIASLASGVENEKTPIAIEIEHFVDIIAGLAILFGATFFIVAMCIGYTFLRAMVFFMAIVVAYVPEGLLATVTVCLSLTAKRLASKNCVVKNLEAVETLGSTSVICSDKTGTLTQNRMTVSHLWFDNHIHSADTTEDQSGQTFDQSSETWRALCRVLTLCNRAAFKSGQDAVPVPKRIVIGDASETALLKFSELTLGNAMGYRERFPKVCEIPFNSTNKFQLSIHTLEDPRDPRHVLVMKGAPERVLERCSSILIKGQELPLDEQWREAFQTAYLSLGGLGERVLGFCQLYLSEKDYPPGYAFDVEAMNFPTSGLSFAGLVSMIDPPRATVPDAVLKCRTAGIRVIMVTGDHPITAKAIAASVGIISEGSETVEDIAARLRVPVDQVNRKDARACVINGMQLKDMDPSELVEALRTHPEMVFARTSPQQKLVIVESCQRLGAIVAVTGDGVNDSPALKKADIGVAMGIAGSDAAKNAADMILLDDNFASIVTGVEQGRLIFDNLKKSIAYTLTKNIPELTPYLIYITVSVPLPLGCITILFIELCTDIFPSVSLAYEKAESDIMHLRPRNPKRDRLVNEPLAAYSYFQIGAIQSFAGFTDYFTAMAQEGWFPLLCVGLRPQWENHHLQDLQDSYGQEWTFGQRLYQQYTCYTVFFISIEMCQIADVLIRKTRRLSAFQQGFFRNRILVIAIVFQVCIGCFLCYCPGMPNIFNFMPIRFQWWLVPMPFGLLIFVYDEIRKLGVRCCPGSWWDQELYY
H^+,K^+-ATPase D137F, sequence (P18434 whole entry partner): as the sequence (P18434 whole entry partner) above
H^+,K^+-ATPase L139F, sequence (P19156 whole entry L140F): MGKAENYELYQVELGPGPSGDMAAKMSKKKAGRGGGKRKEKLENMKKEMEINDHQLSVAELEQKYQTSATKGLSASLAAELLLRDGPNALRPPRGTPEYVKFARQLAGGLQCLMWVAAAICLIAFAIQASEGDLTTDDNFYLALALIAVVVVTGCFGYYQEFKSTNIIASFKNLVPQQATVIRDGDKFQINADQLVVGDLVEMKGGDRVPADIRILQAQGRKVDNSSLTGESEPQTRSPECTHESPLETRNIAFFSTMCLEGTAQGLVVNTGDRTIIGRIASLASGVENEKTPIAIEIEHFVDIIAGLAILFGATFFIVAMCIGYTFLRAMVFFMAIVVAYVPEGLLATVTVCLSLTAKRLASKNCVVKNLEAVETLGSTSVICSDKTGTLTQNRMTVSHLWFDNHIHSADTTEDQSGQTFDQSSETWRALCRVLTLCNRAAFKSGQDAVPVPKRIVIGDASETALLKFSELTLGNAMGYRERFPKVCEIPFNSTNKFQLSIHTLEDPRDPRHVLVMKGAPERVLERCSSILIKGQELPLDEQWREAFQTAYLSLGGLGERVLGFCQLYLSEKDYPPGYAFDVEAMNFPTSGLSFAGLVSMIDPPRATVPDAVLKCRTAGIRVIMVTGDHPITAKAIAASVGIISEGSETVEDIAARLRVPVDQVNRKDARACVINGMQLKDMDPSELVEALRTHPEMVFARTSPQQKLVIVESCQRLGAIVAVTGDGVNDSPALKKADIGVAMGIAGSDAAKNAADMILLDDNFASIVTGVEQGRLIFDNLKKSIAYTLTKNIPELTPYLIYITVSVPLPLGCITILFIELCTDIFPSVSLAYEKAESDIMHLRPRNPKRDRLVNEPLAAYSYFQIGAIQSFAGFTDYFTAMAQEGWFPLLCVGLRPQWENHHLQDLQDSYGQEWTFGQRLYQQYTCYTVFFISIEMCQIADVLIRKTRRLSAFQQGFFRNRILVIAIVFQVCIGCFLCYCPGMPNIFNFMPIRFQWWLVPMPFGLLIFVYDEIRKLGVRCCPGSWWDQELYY
H^+,K^+-ATPase L139F, sequence (P18434 whole entry partner): as the sequence (P18434 whole entry partner) above

Cc1nc2c(OCc3ccccc3)cccn2c1CC#N [SCH28080]
protonation [1]: approximately 2.5%
Ki [2]: > 40 µM
affinity (in words) [2]: almost no affinity
fold reduced affinity (H^+,K^+-ATPase L809F [3]; L809F vs wild-type, previously reported): more than 90 fold
Ki (H^+,K^+-ATPase L809F [3]; L809F): 6.15 µM
fold low apparent affinity (IC 50) (H^+,K^+-ATPase Y799A [4]): ~ 100 fold and 100 fold
effect on affinity (in words) (H^+,K^+-ATPase Y799F [5]): negligible effects

Cc1cn2cccc(OCc3ccccc3)c2n1 [SCH-CN^−]
-fold increase in K i compared with wild-type (H^+,K^+-ATPase WT): 1.0 fold
Ki (H^+,K^+-ATPase WT; global fitting, mean ± SEM): 3.2 ± 0.3 µM
-fold increase in K i compared with wild-type (H^+,K^+-ATPase D137E): 1.4 fold
Ki (H^+,K^+-ATPase D137E; high H^+-ATPase activity, K i' determined by K m/V max plot): 4.4 ± 0.4 µM
Ki (H^+,K^+-ATPase D136A): 5.1 ± 0.4 µM
-fold increase in K i compared with wild-type (H^+,K^+-ATPase D136A; D136A): 1.6 fold
Ki (H^+,K^+-ATPase D136L): 3.3 ± 0.2 µM
-fold increase in K i compared with wild-type (H^+,K^+-ATPase D136L; D136L): 1.0 fold
Ki (H^+,K^+-ATPase D136I): 4.1 ± 0.3 µM
-fold increase in K i compared with wild-type (H^+,K^+-ATPase D136I; D136I): 1.3 fold
Ki (H^+,K^+-ATPase D136F): 2.9 ± 0.1 µM
-fold increase in K i compared with wild-type (H^+,K^+-ATPase D136F; D136F): 0.9 fold
Ki (H^+,K^+-ATPase D137A): 28 ± 2 µM
-fold increase in K i compared with wild-type (H^+,K^+-ATPase D137A; D137A): 8.8 fold
Ki (H^+,K^+-ATPase D137L): 32 ± 6 µM
-fold increase in K i compared with wild-type (H^+,K^+-ATPase D137L; D137L): 10 fold
Ki (H^+,K^+-ATPase D137I): 39 ± 7 µM
-fold increase in K i compared with wild-type (H^+,K^+-ATPase D137I; D137I): 12 fold
Ki (H^+,K^+-ATPase D137F): 47 ± 6 µM
-fold increase in K i compared with wild-type (H^+,K^+-ATPase D137F; D137F): 15 fold
Ki (H^+,K^+-ATPase N138A): 4.2 ± 0.5 µM
-fold increase in K i compared with wild-type (H^+,K^+-ATPase N138A; N138A): 1.3 fold
Ki (H^+,K^+-ATPase N138L): 14 ± 2 µM
-fold increase in K i compared with wild-type (H^+,K^+-ATPase N138L; N138L): 4.4 fold
Ki (H^+,K^+-ATPase N138I): 3.7 ± 0.7 µM
-fold increase in K i compared with wild-type (H^+,K^+-ATPase N138I; N138I): 1.2 fold
Ki (H^+,K^+-ATPase N138F): 52 ± 9 µM
-fold increase in K i compared with wild-type (H^+,K^+-ATPase N138F; N138F): 16 fold
Ki (H^+,K^+-ATPase L139A): 3.3 ± 0.3 µM
-fold increase in K i compared with wild-type (H^+,K^+-ATPase L139A; L139A): 1.0 fold
Ki (H^+,K^+-ATPase L139I): 1.1 ± 0.1 µM
-fold increase in K i compared with wild-type (H^+,K^+-ATPase L139I; L139I): 0.3 fold
Ki (H^+,K^+-ATPase L139F): 6.6 ± 0.5 µM
-fold increase in K i compared with wild-type (H^+,K^+-ATPase L139F; L139F): 2.1 fold
Ki (H^+,K^+-ATPase Y140A): 7.3 ± 1 µM
-fold increase in K i compared with wild-type (H^+,K^+-ATPase Y140A; Y140A): 2.3 fold
Ki (H^+,K^+-ATPase Y140L): 2.7 ± 0.2 µM
-fold increase in K i compared with wild-type (H^+,K^+-ATPase Y140L; Y140L): 0.8 fold
Ki (H^+,K^+-ATPase Y140I): 2.1 ± 0.2 µM
-fold increase in K i compared with wild-type (H^+,K^+-ATPase Y140I; Y140I): 0.7 fold
Ki (H^+,K^+-ATPase Y140F): 3.7 ± 0.2 µM
-fold increase in K i compared with wild-type (H^+,K^+-ATPase Y140F; Y140F): 1.2 fold
Ki (H^+,K^+-ATPase L141I): 2.4 ± 0.2 µM
-fold increase in K i compared with wild-type (H^+,K^+-ATPase L141I; L141I): 0.8 fold
Ki (H^+,K^+-ATPase D137N): 120 ± 30 µM
-fold increase in K i compared with wild-type (H^+,K^+-ATPase D137N; D137N): 38 fold
Ki (H^+,K^+-ATPase N138D): 2.6 ± 0.2 µM
-fold increase in K i compared with wild-type (H^+,K^+-ATPase N138D; N138D): 0.8 fold
Ki (H^+,K^+-ATPase A335G): 1 ± 0.1 µM
-fold increase in K i compared with wild-type (H^+,K^+-ATPase A335G; A335G): 0.3 fold
Ki (H^+,K^+-ATPase Y799A [6]): 81 ± 15 µM
-fold increase in K i compared with wild-type (H^+,K^+-ATPase Y799A [6]; Y799A): 25 fold
Ki (H^+,K^+-ATPase Y799F [7]): 18 ± 2 µM
-fold increase in K i compared with wild-type (H^+,K^+-ATPase Y799F [7]; Y799F): 5.6 fold
Ki (H^+,K^+-ATPase L809F [8]): 98 ± 12 µM
-fold increase in K i compared with wild-type (H^+,K^+-ATPase L809F [8]; L809F): 31 fold
-fold increase in K i compared with wild-type [9]: 7.2 fold
Ki ([9]; global fitting): 23 ± 20 µM
Ki [10]: 71 ± 10 µM
-fold increase in K i compared with wild-type ([10]; A335C/C813A): 22 fold
IC50 (H^+,K^+-ATPase): 110 µM
